Values joined by “and” are separate entries in the source; they are usually repeats but may differ in a detail not shown here. Equal entries are not always repeated.
Legend:
Assay in all cases: radiometric filter-binding kinase assay, Kinase HotSpot
Settings in all cases: compound 0.5 µM; ATP 10 µM
ABL2 (human) = ABL2 (human) (UniProt P42684)
BMX (human) = BMX (human) (UniProt P51813)
BTK (human) = BTK (human) (UniProt Q06187)
CAMK1D (human) = CAMK1D (human) (UniProt Q8IU85)
CAMK2B (human) = CAMK2B (human) (UniProt Q13554)
CDK4 CCND3 (human) = CDK4 CCND3 (human) (UniProt P30281+P11802)
CHUK (human) = CHUK (human) (UniProt O15111)
CSNK1G1 (human) = CSNK1G1 (human) (UniProt Q9HCP0)
DCLK2 (human) = DCLK2 (human) (UniProt Q8N568)
DSTYK (human) = DSTYK (human) (UniProt Q6XUX3)
DYRK4 (human) = DYRK4 (human) (UniProt Q9NR20)
EPHA1 (human) = EPHA1 (human) (UniProt P21709)
EPHA5 (human) = EPHA5 (human) (UniProt P54756)
EPHA8 (human) = EPHA8 (human) (UniProt P29322)
ERBB4 (human) = ERBB4 (human) (UniProt Q15303)
GRK4 (human) = GRK4 (human) (UniProt P32298)
GRK5 (human) = GRK5 (human) (UniProt P34947)
HCK (human) = HCK (human) (UniProt P08631)
HIPK1 (human) = HIPK1 (human) (UniProt Q86Z02)
INSRR (human) = INSRR (human) (UniProt P14616)
JAK2 JH1 JH2 (human) = JAK2 JH1 JH2 (human) (UniProt O60674)
LRRK2 (human) = LRRK2 (human) (UniProt Q5S007)
MAP2K2 (human) = MAP2K2 (human) (UniProt P36507)
MAP3K3 (human) = MAP3K3 (human) (UniProt Q99759)
MAP4K5 (human) = MAP4K5 (human) (UniProt Q9Y4K4)
MAPK12 (human) = MAPK12 (human) (UniProt P53778)
MAPK8 (human) = MAPK8 (human) (UniProt P45983)
MARK2 (human) = MARK2 (human) (UniProt Q7KZI7)
NEK1 (human) = NEK1 (human) (UniProt Q96PY6)
NEK4 (human) = NEK4 (human) (UniProt P51957)
NEK6 (human) = NEK6 (human) (UniProt Q9HC98)
NEK7 (human) = NEK7 (human) (UniProt Q8TDX7)
NEK9 (human) = NEK9 (human) (UniProt Q8TD19)
PRKCD (human) = PRKCD (human) (UniProt Q05655)
PRKCG (human) = PRKCG (human) (UniProt P05129)
PRKD1 (human) = PRKD1 (human) (UniProt Q15139)
PRKG1 (human) = PRKG1 (human) (UniProt Q13976)
RET (human) = RET (human) (UniProt P07949)
SGK2 (human) = SGK2 (human) (UniProt Q9HBY8)
SRPK2 (human) = SRPK2 (human) (UniProt P78362)
TAOK3 (human) = TAOK3 (human) (UniProt Q9H2K8)
YES1 (human) = YES1 (human) (UniProt P07947)

Chain of HCK (human) (P08631 whole entry, looked up): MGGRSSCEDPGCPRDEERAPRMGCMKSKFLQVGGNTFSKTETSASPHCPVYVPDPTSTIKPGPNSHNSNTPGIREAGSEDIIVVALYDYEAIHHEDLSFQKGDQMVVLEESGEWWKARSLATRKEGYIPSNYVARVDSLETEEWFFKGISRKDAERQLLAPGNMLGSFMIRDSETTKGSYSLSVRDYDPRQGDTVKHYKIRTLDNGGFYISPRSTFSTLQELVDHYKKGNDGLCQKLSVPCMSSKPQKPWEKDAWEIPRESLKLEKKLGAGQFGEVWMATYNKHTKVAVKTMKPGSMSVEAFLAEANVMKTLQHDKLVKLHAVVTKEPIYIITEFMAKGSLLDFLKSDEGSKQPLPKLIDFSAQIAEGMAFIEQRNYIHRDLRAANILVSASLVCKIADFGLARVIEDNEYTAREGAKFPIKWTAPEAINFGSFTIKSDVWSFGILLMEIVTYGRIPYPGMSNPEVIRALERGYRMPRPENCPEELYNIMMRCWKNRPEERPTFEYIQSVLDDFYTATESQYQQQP
Chain of BTK (human) (Q06187 whole entry, looked up): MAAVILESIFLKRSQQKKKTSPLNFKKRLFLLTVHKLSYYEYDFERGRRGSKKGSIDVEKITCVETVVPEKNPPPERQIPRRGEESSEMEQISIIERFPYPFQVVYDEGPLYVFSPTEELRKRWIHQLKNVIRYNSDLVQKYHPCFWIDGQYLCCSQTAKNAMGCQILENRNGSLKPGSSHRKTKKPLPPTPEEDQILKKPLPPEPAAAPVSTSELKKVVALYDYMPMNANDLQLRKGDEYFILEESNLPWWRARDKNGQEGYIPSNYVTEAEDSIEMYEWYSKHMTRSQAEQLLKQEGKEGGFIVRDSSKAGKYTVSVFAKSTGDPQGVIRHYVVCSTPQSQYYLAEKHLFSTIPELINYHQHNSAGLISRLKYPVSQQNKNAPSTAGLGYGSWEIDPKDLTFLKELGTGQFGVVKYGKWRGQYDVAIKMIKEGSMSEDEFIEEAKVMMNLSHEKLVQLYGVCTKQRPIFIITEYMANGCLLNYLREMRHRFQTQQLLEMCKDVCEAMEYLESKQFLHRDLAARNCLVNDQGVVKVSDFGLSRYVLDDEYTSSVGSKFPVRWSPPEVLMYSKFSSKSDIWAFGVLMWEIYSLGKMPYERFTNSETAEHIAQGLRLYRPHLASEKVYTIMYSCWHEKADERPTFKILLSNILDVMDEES
Chain of EPHA1 (human) (P21709 whole entry, looked up): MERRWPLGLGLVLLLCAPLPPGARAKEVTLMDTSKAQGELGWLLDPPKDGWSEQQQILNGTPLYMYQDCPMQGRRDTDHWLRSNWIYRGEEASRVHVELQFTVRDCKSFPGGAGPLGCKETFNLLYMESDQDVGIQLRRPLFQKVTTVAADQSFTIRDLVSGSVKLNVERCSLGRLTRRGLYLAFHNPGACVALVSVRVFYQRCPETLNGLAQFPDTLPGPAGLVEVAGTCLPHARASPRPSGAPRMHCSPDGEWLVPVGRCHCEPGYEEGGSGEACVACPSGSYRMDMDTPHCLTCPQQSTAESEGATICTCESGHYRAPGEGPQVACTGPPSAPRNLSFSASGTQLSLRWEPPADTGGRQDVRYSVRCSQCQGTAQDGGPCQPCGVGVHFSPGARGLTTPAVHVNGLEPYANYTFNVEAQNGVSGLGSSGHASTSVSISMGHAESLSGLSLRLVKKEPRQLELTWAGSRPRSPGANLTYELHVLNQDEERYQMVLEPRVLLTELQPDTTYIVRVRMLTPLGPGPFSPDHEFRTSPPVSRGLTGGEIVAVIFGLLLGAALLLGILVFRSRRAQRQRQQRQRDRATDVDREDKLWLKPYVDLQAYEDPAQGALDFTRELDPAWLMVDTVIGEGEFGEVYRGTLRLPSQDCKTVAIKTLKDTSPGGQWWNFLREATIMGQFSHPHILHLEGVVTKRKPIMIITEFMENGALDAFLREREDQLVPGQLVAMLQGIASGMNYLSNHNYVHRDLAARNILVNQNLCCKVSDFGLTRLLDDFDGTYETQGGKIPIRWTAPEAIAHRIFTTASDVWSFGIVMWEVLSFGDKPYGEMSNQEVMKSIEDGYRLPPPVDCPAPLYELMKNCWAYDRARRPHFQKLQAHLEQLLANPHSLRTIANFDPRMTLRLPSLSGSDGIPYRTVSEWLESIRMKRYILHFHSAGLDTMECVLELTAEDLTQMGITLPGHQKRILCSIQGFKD
Chain of MAP4K5 (human) (Q9Y4K4 whole entry, looked up): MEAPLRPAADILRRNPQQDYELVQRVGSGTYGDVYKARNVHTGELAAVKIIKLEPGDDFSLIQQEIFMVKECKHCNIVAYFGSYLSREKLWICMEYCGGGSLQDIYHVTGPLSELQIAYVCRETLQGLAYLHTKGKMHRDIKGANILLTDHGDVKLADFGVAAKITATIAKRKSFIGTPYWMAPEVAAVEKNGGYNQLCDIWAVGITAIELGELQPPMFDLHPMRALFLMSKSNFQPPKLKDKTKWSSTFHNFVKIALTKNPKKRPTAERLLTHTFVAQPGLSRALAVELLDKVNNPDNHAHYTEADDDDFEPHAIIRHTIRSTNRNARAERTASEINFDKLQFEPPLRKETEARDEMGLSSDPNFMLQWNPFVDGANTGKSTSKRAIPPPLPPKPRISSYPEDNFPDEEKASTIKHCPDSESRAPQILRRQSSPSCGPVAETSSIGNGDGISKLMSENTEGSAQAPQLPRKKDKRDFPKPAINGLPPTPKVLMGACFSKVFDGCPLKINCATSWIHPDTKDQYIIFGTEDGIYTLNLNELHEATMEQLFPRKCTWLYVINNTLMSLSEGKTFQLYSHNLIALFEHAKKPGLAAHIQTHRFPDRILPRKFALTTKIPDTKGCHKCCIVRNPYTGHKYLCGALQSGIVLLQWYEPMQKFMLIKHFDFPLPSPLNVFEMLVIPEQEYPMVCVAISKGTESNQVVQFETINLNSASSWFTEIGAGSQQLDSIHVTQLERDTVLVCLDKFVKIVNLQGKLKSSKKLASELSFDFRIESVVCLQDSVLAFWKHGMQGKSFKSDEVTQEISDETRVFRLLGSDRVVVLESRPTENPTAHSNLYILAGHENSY
Chain of CSNK1G1 (human) (Q9HCP0 whole entry, looked up): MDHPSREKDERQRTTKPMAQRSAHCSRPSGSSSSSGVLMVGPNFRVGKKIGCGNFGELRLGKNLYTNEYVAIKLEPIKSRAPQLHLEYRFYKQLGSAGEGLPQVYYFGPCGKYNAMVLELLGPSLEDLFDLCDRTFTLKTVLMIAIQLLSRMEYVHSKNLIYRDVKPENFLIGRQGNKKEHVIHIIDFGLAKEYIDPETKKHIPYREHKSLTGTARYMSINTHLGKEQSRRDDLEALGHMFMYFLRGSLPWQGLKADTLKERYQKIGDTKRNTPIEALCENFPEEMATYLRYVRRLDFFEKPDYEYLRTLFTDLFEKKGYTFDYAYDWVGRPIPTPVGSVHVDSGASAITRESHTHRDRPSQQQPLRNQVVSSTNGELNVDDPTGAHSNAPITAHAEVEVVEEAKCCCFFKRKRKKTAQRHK
Chain of TAOK3 (human) (Q9H2K8 whole entry, looked up): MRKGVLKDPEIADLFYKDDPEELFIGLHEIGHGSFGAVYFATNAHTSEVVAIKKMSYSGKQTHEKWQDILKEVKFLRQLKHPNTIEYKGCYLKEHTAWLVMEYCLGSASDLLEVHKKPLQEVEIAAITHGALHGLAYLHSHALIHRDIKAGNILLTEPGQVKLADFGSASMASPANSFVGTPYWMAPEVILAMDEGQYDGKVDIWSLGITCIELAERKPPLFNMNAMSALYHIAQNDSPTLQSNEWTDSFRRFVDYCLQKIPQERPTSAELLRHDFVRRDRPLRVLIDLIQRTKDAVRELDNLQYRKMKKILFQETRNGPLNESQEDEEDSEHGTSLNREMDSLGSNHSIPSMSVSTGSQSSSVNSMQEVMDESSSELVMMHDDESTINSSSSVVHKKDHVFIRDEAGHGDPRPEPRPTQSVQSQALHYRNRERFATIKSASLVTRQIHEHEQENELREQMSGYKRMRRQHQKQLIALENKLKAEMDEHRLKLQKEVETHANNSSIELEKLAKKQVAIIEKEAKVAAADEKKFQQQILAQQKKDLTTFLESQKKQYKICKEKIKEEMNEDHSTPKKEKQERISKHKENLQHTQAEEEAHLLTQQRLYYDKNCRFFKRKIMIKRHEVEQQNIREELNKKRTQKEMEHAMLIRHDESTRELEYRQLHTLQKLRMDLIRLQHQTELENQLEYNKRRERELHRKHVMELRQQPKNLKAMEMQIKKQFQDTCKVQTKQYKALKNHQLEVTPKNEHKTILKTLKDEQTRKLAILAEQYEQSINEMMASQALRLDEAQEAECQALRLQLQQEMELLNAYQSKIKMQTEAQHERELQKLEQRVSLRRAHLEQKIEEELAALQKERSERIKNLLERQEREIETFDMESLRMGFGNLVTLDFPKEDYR

For O=C(Nc1ccc(Cl)cc1)c1ccccc1NCc1ccncc1, the residual activity (ABL2 (human)) was 93.4%, the residual activity (BMX (human)) was 90.5% and the residual activity (BTK (human)) was 98.9%. It also gave a residual activity (CAMK1D (human)) of 95.3%, a residual activity (CAMK2B (human)) of 93.4% and a residual activity (CDK4 CCND3 (human)) of 94.2%. For the same molecule, the residual activity (CHUK (human)) was 104%, the residual activity (CSNK1G1 (human)) was 110% and the residual activity (DCLK2 (human)) was 95.2%. For the same molecule, the residual activity (DSTYK (human)) was 94.7%, the residual activity (DYRK4 (human)) was 104% and the residual activity (EPHA1 (human)) was 97%. It also gave a residual activity (EPHA5 (human)) of 82.1%, a residual activity (EPHA8 (human)) of 87.6% and a residual activity (ERBB4 (human)) of 71.3%. For the same molecule, the residual activity (GRK4 (human)) was 96.8%, the residual activity (GRK5 (human)) was 97.3% and the residual activity (HCK (human)) was 101%. It also gave a residual activity (HIPK1 (human)) of 92.7%, a residual activity (INSRR (human)) of 96.1% and a residual activity (JAK2 JH1 JH2 (human)) of 96.5%. For the same molecule, the residual activity (LRRK2 (human)) was 98.7%, the residual activity (MAP2K2 (human)) was 102% and the residual activity (MAP3K3 (human)) was 96.2%. For the same molecule, the residual activity (MAP4K5 (human)) was 95.8%, the residual activity (MAPK12 (human)) was 97.3% and the residual activity (MAPK8 (human)) was 109%. For the same molecule, the residual activity (MARK2 (human)) was 92.7%, the residual activity (NEK1 (human)) was 96% and the residual activity (NEK4 (human)) was 85.8%. For the same molecule, the residual activity (NEK6 (human)) was 97.1%, the residual activity (NEK7 (human)) was 103% and the residual activity (NEK9 (human)) was 91.2%. The residual activity (PRKCD (human)) was 84.7%, the residual activity (PRKCG (human)) was 102% and the residual activity (PRKD1 (human)) was 93.2%. The residual activity (PRKG1 (human)) was 86.8% and 92.3%, the residual activity (RET (human)) was 58.9% and the residual activity (SGK2 (human)) was 103%. For the same molecule, the residual activity (SRPK2 (human)) was 85.1%, the residual activity (TAOK3 (human)) was 94.1% and the residual activity (YES1 (human)) was 95.3%.
In the case of Nc1nc(Nc2ccc(S(N)(=O)=O)cc2)nn1C(=S)Nc1c(F)cccc1F, the residual activity (ABL2 (human)) is reported as 10.5%, the residual activity (BMX (human)) is reported as 77.5% and the residual activity (BTK (human)) is reported as 84.1%. It also gave a residual activity (CAMK1D (human)) of 93.4%, a residual activity (CAMK2B (human)) of 9.5% and a residual activity (CDK4 CCND3 (human)) of 3.67%. It also gave a residual activity (CHUK (human)) of 54.4%, a residual activity (CSNK1G1 (human)) of 16.7% and a residual activity (DCLK2 (human)) of 40.4%. The residual activity (DSTYK (human)) was 17.8%, the residual activity (DYRK4 (human)) was 96.5% and the residual activity (EPHA1 (human)) was 37.4%. For the same molecule, the residual activity (EPHA5 (human)) was 56.7%, the residual activity (EPHA8 (human)) was 98.5% and the residual activity (ERBB4 (human)) was 98%. For the same molecule, the residual activity (GRK4 (human)) was 92.2%, the residual activity (GRK5 (human)) was 75.6% and the residual activity (HCK (human)) was 37.9%. The residual activity (HIPK1 (human)) was 105%, the residual activity (INSRR (human)) was 86.5% and the residual activity (JAK2 JH1 JH2 (human)) was 3.16%. The residual activity (LRRK2 (human)) was 1.33%, the residual activity (MAP2K2 (human)) was 96.6% and the residual activity (MAP3K3 (human)) was 5.41%. The residual activity (MAP4K5 (human)) was 1.71%, the residual activity (MAPK12 (human)) was 95.2% and the residual activity (MAPK8 (human)) was 78.8%. For the same molecule, the residual activity (MARK2 (human)) was 3.43%, the residual activity (NEK1 (human)) was 6.11% and the residual activity (NEK4 (human)) was 60.5%. For the same molecule, the residual activity (NEK6 (human)) was 78.8%, the residual activity (NEK7 (human)) was 82.6% and the residual activity (NEK9 (human)) was 39.1%. It also gave a residual activity (PRKCD (human)) of 22.2%, a residual activity (PRKCG (human)) of 93% and a residual activity (PRKD1 (human)) of 7.79%. The residual activity (PRKG1 (human)) was 85.1% and 91.3%, the residual activity (RET (human)) was 3.09% and the residual activity (SGK2 (human)) was 42%. It also gave a residual activity (SRPK2 (human)) of 17.1%, a residual activity (TAOK3 (human)) of 10% and a residual activity (YES1 (human)) of 10.5%.
For CC(C)(C)c1nc2c3ccc(F)cc3c3c(=O)[nH]ccc3c2[nH]1, the residual activity (ABL2 (human)) was 90.3%, the residual activity (BMX (human)) was 71.9% and the residual activity (BTK (human)) was 80.5%. It also gave a residual activity (CAMK1D (human)) of 81.6%, a residual activity (CAMK2B (human)) of 73.4% and a residual activity (CDK4 CCND3 (human)) of 95.2%. For the same molecule, the residual activity (CHUK (human)) was 102%, the residual activity (CSNK1G1 (human)) was 96.5% and the residual activity (DCLK2 (human)) was 65.8%. For the same molecule, the residual activity (DSTYK (human)) was 62%, the residual activity (DYRK4 (human)) was 104% and the residual activity (EPHA1 (human)) was 80.5%. The residual activity (EPHA5 (human)) was 100%, the residual activity (EPHA8 (human)) was 105% and the residual activity (ERBB4 (human)) was 99.9%. For the same molecule, the residual activity (GRK4 (human)) was 74.2%, the residual activity (GRK5 (human)) was 72.9% and the residual activity (HCK (human)) was 84.8%. For the same molecule, the residual activity (HIPK1 (human)) was 88.7%, the residual activity (INSRR (human)) was 75.2% and the residual activity (JAK2 JH1 JH2 (human)) was 1.37%. For the same molecule, the residual activity (LRRK2 (human)) was 47.5%, the residual activity (MAP2K2 (human)) was 82.1% and the residual activity (MAP3K3 (human)) was 61.1%. It also gave a residual activity (MAP4K5 (human)) of 65.8%, a residual activity (MAPK12 (human)) of 97.9% and a residual activity (MAPK8 (human)) of 73.7%. The residual activity (MARK2 (human)) was 41.5%, the residual activity (NEK1 (human)) was 49% and the residual activity (NEK4 (human)) was 65.6%. It also gave a residual activity (NEK6 (human)) of 82.5%, a residual activity (NEK7 (human)) of 76.5% and a residual activity (NEK9 (human)) of 71.7%. The residual activity (PRKCD (human)) was 43.6%, the residual activity (PRKCG (human)) was 79.9% and the residual activity (PRKD1 (human)) was 8.19%. The residual activity (PRKG1 (human)) was 40.2% and 52.3%, the residual activity (RET (human)) was 18.3% and the residual activity (SGK2 (human)) was 84.4%. It also gave a residual activity (SRPK2 (human)) of 70.5%, a residual activity (TAOK3 (human)) of 50.3% and a residual activity (YES1 (human)) of 76.1%.
With O=c1cc(-c2cccc3c2Sc2ccccc2S3)oc(N2CCOCC2)c1 the residual activity (ABL2 (human)) was 92%, the residual activity (BMX (human)) was 112% and the residual activity (BTK (human)) was 104%. The residual activity (CAMK1D (human)) was 106%, the residual activity (CAMK2B (human)) was 106% and the residual activity (CDK4 CCND3 (human)) was 99.2%. It also gave a residual activity (CHUK (human)) of 87.4%, a residual activity (CSNK1G1 (human)) of 99.3% and a residual activity (DCLK2 (human)) of 106%. For the same molecule, the residual activity (DSTYK (human)) was 93.4%, the residual activity (DYRK4 (human)) was 105% and the residual activity (EPHA1 (human)) was 84.7%. For the same molecule, the residual activity (EPHA5 (human)) was 114%, the residual activity (EPHA8 (human)) was 110% and the residual activity (ERBB4 (human)) was 105%. It also gave a residual activity (GRK4 (human)) of 105%, a residual activity (GRK5 (human)) of 105% and a residual activity (HCK (human)) of 102%. It also gave a residual activity (HIPK1 (human)) of 99.6%, a residual activity (INSRR (human)) of 98.7% and a residual activity (JAK2 JH1 JH2 (human)) of 105%. The residual activity (LRRK2 (human)) was 102%, the residual activity (MAP2K2 (human)) was 81.8% and the residual activity (MAP3K3 (human)) was 137%. The residual activity (MAP4K5 (human)) was 93.6%, the residual activity (MAPK12 (human)) was 114% and the residual activity (MAPK8 (human)) was 84%. For the same molecule, the residual activity (MARK2 (human)) was 86.3%, the residual activity (NEK1 (human)) was 100% and the residual activity (NEK4 (human)) was 90%. For the same molecule, the residual activity (NEK6 (human)) was 103%, the residual activity (NEK7 (human)) was 105% and the residual activity (NEK9 (human)) was 110%. It also gave a residual activity (PRKCD (human)) of 91.9%, a residual activity (PRKCG (human)) of 96.9% and a residual activity (PRKD1 (human)) of 90.3%. For the same molecule, the residual activity (PRKG1 (human)) was 102% and 103%, the residual activity (RET (human)) was 82.4% and the residual activity (SGK2 (human)) was 115%. The residual activity (SRPK2 (human)) was 110%, the residual activity (TAOK3 (human)) was 115% and the residual activity (YES1 (human)) was 89.4%.

Source: the kinase profiling compilation of Christmann-Franck et al. (2016)
